Assay results published in PubChem BioAssay AID248 (DTP/NCI, 2004).
Values joined by “and” are separate entries in the source; they are usually repeats but may differ in a detail not shown here. Identical values can stand only once. Toxic doses and inconclusive results are not listed. Cut-off read from the data, not from the text of the source: active = T/C of 150% or more; inactive = T/C below 125%.

Test system: L1210 leukemia ip in BDF1 mice, survival T/C
Assay: NCI In Vivo Anticancer Drug Screen. Data for tumor model L1210 Leukemia (intraperitoneal) in B6D2F1 (BDF1) mice
Conditions: endpoint: mean survival time, higher = longer survival
How it was run: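 Ratio derived from survival: compound-dosed mice over vehicle-dosed mice, all bearing a transplantable tumor.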

[1] = dose: 100.0 mg/kg/injection, schedule: Q04DX003 (ip), vehicle: saline with Tween-80
[2] = dose: 200.0 mg/kg/injection, schedule: Q04DX003 (ip), vehicle: saline with Tween-80
[3] = dose: 400.0 mg/kg/injection, schedule: Q04DX003 (ip), vehicle: saline with Tween-80
[4] = dose: 100.0 mg/kg/injection, schedule: Q04DX003 (ip), vehicle: other
[5] = dose: 200.0 mg/kg/injection, schedule: Q04DX003 (ip), vehicle: other
[6] = dose: 400.0 mg/kg/injection, schedule: Q04DX003 (ip), vehicle: other
[7] = dose: 100.0 mg/kg/injection, schedule: Q01DX001 (ip), vehicle: saline
[8] = dose: 200.0 mg/kg/injection, schedule: Q01DX001 (ip), vehicle: saline
[9] = dose: 75.0 mg/kg/injection, schedule: Q01DX001 (ip), vehicle: saline
[10] = dose: 400.0 mg/kg/injection, schedule: Q01DX001 (ip), vehicle: saline
[11] = dose: 50.0 mg/kg/injection, schedule: Q04DX003 (ip), vehicle: saline
[12] = dose: 100.0 mg/kg/injection, schedule: Q04DX003 (ip), vehicle: saline
[13] = dose: 200.0 mg/kg/injection, schedule: Q04DX003 (ip), vehicle: saline
[14] = dose: 100.0 mg/kg/injection, schedule: Q01DX009 (ip), vehicle: saline
[15] = dose: 200.0 mg/kg/injection, schedule: Q01DX009 (ip), vehicle: saline
[16] = dose: 400.0 mg/kg/injection, schedule: Q01DX009 (ip), vehicle: saline
[17] = dose: 150.0 mg/kg/injection, schedule: Q01DX001 (ip), vehicle: saline
[18] = dose: 300.0 mg/kg/injection, schedule: Q01DX001 (ip), vehicle: saline
[19] = dose: 25.0 mg/kg/injection, schedule: Q04DX003 (ip), vehicle: saline

Measured: T/C

CCCCOB(OCCCC)C(C)C(C#N)C#N (stereo not drawn)
inactive: dose: 100.0 mg/kg/injection, schedule: Q01DX009 (ip), vehicle: saline sonified 94 % of control | [1] 110 % of control | dose: 200.0 mg/kg/injection, schedule: Q01DX009 (ip), vehicle: saline sonified 92 % of control | [2] 98 % of control | dose: 400.0 mg/kg/injection, schedule: Q01DX009 (ip), vehicle: saline sonified 89 % of control | [3] 93 % of control

COc1ccc(C2(c3ccccc3)OC(=O)c3ccccc32)c2ccccc12 (stereo not drawn)
inactive: dose: 100.0 mg/kg/injection, schedule: Q01DX001 (ip), vehicle: other 110 % of control | [4] 104 % of control | dose: 200.0 mg/kg/injection, schedule: Q01DX001 (ip), vehicle: other 92 % of control | [5] 100 % of control | dose: 400.0 mg/kg/injection, schedule: Q01DX001 (ip), vehicle: other 86 % of control | [6] 111 % of control

Cc1cc(=O)[nH]c(O)c1C(=O)CC(=O)c1ccccc1
inactive: [7] 97 % of control | [8] 100 % of control

O=C(CBr)CC(O)(C(F)(F)F)C(F)(F)F
inactive: dose: 3.0 mg/kg/injection, schedule: Q01DX009 (ip), vehicle: saline 93 % of control | dose: 6.0 mg/kg/injection, schedule: Q01DX009 (ip), vehicle: saline 103 % of control | dose: 12.0 mg/kg/injection, schedule: Q01DX009 (ip), vehicle: saline 103 % of control

C1CCC2C[N-]CCC2C1.C1CCC2C[N-]CCC2C1.C1CCC2C[N-]CCC2C1.C1CCC2C[N-]CCC2C1.[Cl][Rh][Cl] (stereo not drawn)
inactive: dose: 0.5 mg/kg/injection, schedule: Q01DX009 (ip), vehicle: Klucel (hydroxypropylcellulose) (HPC) 101 % of control | dose: 1.0 mg/kg/injection, schedule: Q01DX009 (ip), vehicle: Klucel (hydroxypropylcellulose) (HPC) 108 % of control | dose: 2.0 mg/kg/injection, schedule: Q01DX009 (ip), vehicle: Klucel (hydroxypropylcellulose) (HPC) 110 % of control | dose: 2.0 mg/kg/injection, schedule: Q01DX009 (ip), vehicle: citric acid 92 % of control | dose: 3.12 mg/kg/injection, schedule: Q01DX009 (ip), vehicle: saline with Tween-80 105 % of control | dose: 3.12 mg/kg/injection, schedule: Q04DX003 (ip), vehicle: saline with Tween-80 105 % of control | dose: 4.0 mg/kg/injection, schedule: Q01DX009 (ip), vehicle: Klucel (hydroxypropylcellulose) (HPC) 103 % of control | dose: 6.25 mg/kg/injection, schedule: Q04DX003 (ip), vehicle: saline with Tween-80 108 % of control

COc1cc2c(cc1OC)C1(CCCl)C3CC4C(=CCOC5CC(=O)N2C1C54)CN3C(=O)Cc1ccccc1 (stereo not drawn)
inactive: [9] 100 % of control

COc1ccc(CN2CCCN(Cc3ccc(OC)cc3OC)C2c2cccc(OC)c2O)c(OC)c1
inactive: dose: 50.0 mg/kg/injection, schedule: Q01DX001 (ip), vehicle: saline 95 % of control | [7] 92 % of control | [8] 92 % of control | [10] 95 % of control

CC(=O)C(C)(NCc1ccccc1)c1ccccc1 (stereo not drawn)
inactive: [11] 97 % of control | [4] 95 % of control | [12] 97 % of control | [5] 93 % of control | [13] 102 % of control | [6] 87 % of control

CC(CCCO)C1CCC2C3CCC4CC5(CCC4(C)C3CCC12C)OCCO5 (stereo not drawn)
inactive: dose: 100.0 mg/kg/injection, schedule: Q01DX009 (sc), vehicle: steriod suspending solution 104 % of control | dose: 200.0 mg/kg/injection, schedule: Q01DX009 (sc), vehicle: steriod suspending solution 92 % of control | dose: 400.0 mg/kg/injection, schedule: Q01DX009 (sc), vehicle: steriod suspending solution 94 % of control

CC(=O)OCCSC#N
inactive: dose: 12.5 mg/kg/injection, schedule: Q04DX003 (ip), vehicle: saline with Tween-80 98 % of control | dose: 25.0 mg/kg/injection, schedule: Q04DX003 (ip), vehicle: saline with Tween-80 97 % of control

CC1(CO)C2CCC(O)C1C2 (stereo not drawn)
inactive: dose: 75.0 mg/kg/injection, schedule: Q01DX009 (ip), vehicle: saline 103 % of control | dose: 75.0 mg/kg/injection, schedule: Q04DX003 (ip), vehicle: saline 94 % of control | dose: 150.0 mg/kg/injection, schedule: Q01DX009 (ip), vehicle: saline 97 % of control | dose: 150.0 mg/kg/injection, schedule: Q04DX003 (ip), vehicle: saline 95 % of control | dose: 300.0 mg/kg/injection, schedule: Q01DX009 (ip), vehicle: saline 100 % of control | dose: 300.0 mg/kg/injection, schedule: Q04DX003 (ip), vehicle: saline 102 % of control

CC/C(=N\N=C(N)N)c1ccc(NC(=S)Nc2ccccc2)cc1
inactive: dose: 20.0 mg/kg/injection, schedule: Q01DX009 (ip), vehicle: saline 101 % of control | dose: 40.0 mg/kg/injection, schedule: Q01DX009 (ip), vehicle: saline 101 % of control | dose: 80.0 mg/kg/injection, schedule: Q01DX009 (ip), vehicle: saline 107 % of control

CCCN(CCC)C(=O)c1ccncc1
inactive: [14] 107 % of control | [12] 101 % of control | [15] 102 % of control | [13] 102 % of control | [16] 91 % of control | dose: 400.0 mg/kg/injection, schedule: Q04DX003 (ip), vehicle: saline 114 % of control

C/C(=N\NS(=O)(=O)c1ccccc1)C(C)C
inactive: [9] 101 % of control | [17] 98 % of control | [18] 96 % of control

CC(=O)OC1CC2(O)C(CCC3(C)C(c4ccc(=O)oc4)CCC32O)C2(C)C1=CC(O)C1OC12 (stereo not drawn)
inactive: dose: 0.06 mg/kg/injection, schedule: Q01DX001 (sc), vehicle: steriod suspending solution 105 % of control | dose: 0.13 mg/kg/injection, schedule: Q01DX001 (sc), vehicle: steriod suspending solution 103 % of control | dose: 0.25 mg/kg/injection, schedule: Q01DX001 (sc), vehicle: steriod suspending solution 105 % of control | dose: 0.5 mg/kg/injection, schedule: Q01DX001 (sc), vehicle: steriod suspending solution 100 % of control and 102 % of control | dose: 1.0 mg/kg/injection, schedule: Q01DX001 (sc), vehicle: steriod suspending solution 96 % of control | dose: 2.0 mg/kg/injection, schedule: Q01DX001 (sc), vehicle: steriod suspending solution 104 % of control

CCCCCCCCN1C(=O)C2C(C1=O)C1(Cl)C(Cl)=C(Cl)C2(Cl)C1(Cl)Cl (stereo not drawn)
inactive: [14] 95 % of control | [15] 97 % of control | [16] 93 % of control

Cc1c(Cl)cccc1NC(=O)N(C)Cc1ccccc1
inactive: dose: 50.0 mg/kg/injection, schedule: Q01DX009 (ip), vehicle: saline with Tween-80 109 % of control and 120 % of control | dose: 100.0 mg/kg/injection, schedule: Q04DX002 (ip), vehicle: saline with Tween-80 104 % of control and 110 % of control | [1] 97 % of control | dose: 200.0 mg/kg/injection, schedule: Q04DX002 (ip), vehicle: saline with Tween-80 100 % of control and 104 % of control | [2] 106 % of control | dose: 400.0 mg/kg/injection, schedule: Q04DX002 (ip), vehicle: saline with Tween-80 100 % of control and 103 % of control | [3] 101 % of control

Cc1ccc(S(=O)(=O)OC2C(SCc3ccccc3)OCC(OC(=O)c3ccccc3)C2OC(=O)c2ccccc2)cc1 (stereo not drawn)
inactive: [7] 93 % of control | [8] 88 % of control | [10] 88 % of control

CC(=O)NC1CCC(C(F)(F)F)CC1 (stereo not drawn)
inactive: dose: 100.0 mg/kg/injection, schedule: Q01DX001 (ip), vehicle: Klucel (hydroxypropylcellulose) (HPC) 93 % of control and 96 % of control | dose: 200.0 mg/kg/injection, schedule: Q01DX001 (ip), vehicle: Klucel (hydroxypropylcellulose) (HPC) 95 % of control and 98 % of control | dose: 400.0 mg/kg/injection, schedule: Q01DX001 (ip), vehicle: Klucel (hydroxypropylcellulose) (HPC) 106 % of control and 98 % of control

c1ccc2c(c1)NC(c1cccc3ccccc13)S2 (stereo not drawn)
inactive: [7] 94 % of control | [8] 100 % of control | [10] 94 % of control

COc1ccc(CC(=O)NNC(=O)C2(C(C)C)OC3(O)CCCCN3C2=O)cc1OC (stereo not drawn)
inactive: [19] 101 % of control | [11] 92 % of control | [12] 106 % of control | [13] 92 % of control

O=[N+]([O-])c1ccc(P(=O)(Nc2ccc(Cl)cc2)Nc2ccc(Cl)cc2)cc1
inactive: [9] 86 % of control | [17] 86 % of control | [18] 91 % of control

CN(C)CCN1C(=O)c2ccccc2N(C)c2ccccc21
inactive: [19] 96 % of control | [11] 96 % of control
